Reference: patent US6683047B1, “Method of inhibiting transcription utilizing nuclear receptors” (The Burnham Institute, priority 1990, dated 2004)
Each block holds one molecule with its values, some of them ahead of it.

Columns and labels:
[1] = tested on: TPA induced collagenase promoter activity (TRα); experiment: -73 Col CAT reporter in CV-1 cells, T3 dependent repression by TRα; type: cell-based
Experimental: In addition, applicants have discovered that the thyroid hormone receptor, in the presence of Thyroid hormone, binds AP-1 through a protein/protein interaction and inhibits the transcription of AP-1 activated genes. Specifically, TRα represses TPA induced collagenase promoter activity in a T3 dependent fashion. The −73 Col CAT reporter gene was cotransfected into CV-1 cells with an expression vector for […]. Cells were grown in the presence of the indicated amounts of T3 and/or TPA.

[2] = biological target: T1, RARβ binding to RARE (Homo sapiens, UniProt P10826); experiment: Gel retardation assay, effect on RARβ binding to RARE; details: bacterially produced cJun pre-incubated with RARβ
T1 construct: made in house; host or cells: in vitro translation (reticulocyte lysate)
T1 sequence (P10826 1-455): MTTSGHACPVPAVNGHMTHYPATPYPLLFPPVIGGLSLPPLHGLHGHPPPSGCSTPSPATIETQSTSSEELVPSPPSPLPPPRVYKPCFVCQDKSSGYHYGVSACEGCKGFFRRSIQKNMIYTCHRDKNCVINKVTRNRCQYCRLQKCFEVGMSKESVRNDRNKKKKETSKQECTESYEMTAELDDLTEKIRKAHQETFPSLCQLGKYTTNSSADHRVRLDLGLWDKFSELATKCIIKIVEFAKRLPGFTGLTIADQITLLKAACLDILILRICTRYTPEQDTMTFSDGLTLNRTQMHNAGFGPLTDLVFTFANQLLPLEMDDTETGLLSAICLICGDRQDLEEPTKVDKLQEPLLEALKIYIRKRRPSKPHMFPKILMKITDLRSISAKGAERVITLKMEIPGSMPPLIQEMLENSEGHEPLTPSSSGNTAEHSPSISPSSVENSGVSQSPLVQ
Experimental: In vitro synthesized RAR protein was incubated with ^32P-labelled DNA fragment containing one copy of RARE. The binding of RAR on RARE was analyzed by gel retardation assay. […] C represents the binding of unprogrammed reticulocyte lysate in FIG. 5. To test the effect of cJun protein on RAR binding, excess amount of bacterial expressed Jun protein was incubated with RAR at 37° C. for 15 minutes before the addition of DNA. When anti-cJun (a cJun) was used, it was incubated with Jun protein at room temperature for 45 minutes before mixing with RAR protein.
This inhibition was specific as it was prevented by pre-incubation of cJun with anti-Jun antibodies.

[3] = tested on: collagenase AP-1 site; experiment: Gel retardation assay, binding to DNA fragment containing the collagenase AP-1 site; details: in vitro synthesized protein, 32P-labelled fragment
Experimental: In vitro synthesized glucocorticoid receptor (GR) and retinoic acid receptor (RAR) were incubated with ^32P-labelled DNA fragment derived from −73 COL-CAT by Hind III and Bam HI digestion. Protein-DNA complex was analyzed by gel retardation assay. Control represents the binding of unprogrammed reticulocyte lysate.
Gel retardation experiments were carried out with a 60 bp DNA fragment containing the collagenase AP-1 site.

[4] = tested on: collagenase promoter lacking AP-1 site (-63Col-CAT); experiment: -63Col-CAT reporter co-transfected with RARβ in HeLa cells; type: cell-based; details: presence or absence of RA
[5] = tested on: collagenase promoter AP-1 site (RARβ); experiment: -73Col-CAT reporter co-transfected with RARβ expression vector in HeLa cells, TPA induced CAT activity; type: cell-based
Experimental: The −73 Col CAT reporter gene was cotransfected into HeLa with an expression vector for RARβ/ε. Cells were grown in the presence of the indicated amounts of RA and/or TPA.

[6] = biological target: T2, cJun binding to the AP-1 site (Homo sapiens, UniProt P05412); experiment: Gel retardation assay, effect on cJun binding to the AP-1 site; details: one-fold or five-fold excess, 37° C. for 15 minutes
T2 construct: made in house; host or cells: cell-free (in vitro) translation or bacteria
Experimental: In vitro synthesized cJun protein was incubated with one-fold (1) or five-fold (5) excess of in vitro synthesized RARβ or RARγ protein at 37° C. for 15 minutes. The effect of RARβ or RARγ or cJun binding was analyzed by gel retardation assay.
The Inhibition of cJun binding to the AP-1 site was dependent on the amount of RARs used, and was also observed in response to pre-incubation with in vitro synthesized GR (FIG. 4). As shown for the GRs in Example VI, this in vitro inhibition of cJun binding was ligand independent. The inhibition of Jun binding activity is a specific effect of each receptor because pre-incubation of the cell-free translated RARβ with anti-RAR antibodies prevented this inhibition, while pre-incubation with anti-GR or preimmune serum had no effect. Likewise, the inhibitory activity of cell-free translated GR is inhibited by anti-GR antibodies, but not by anti-RAR or preimmune serum. […] We therefore investigated whether the binding of the heterodimers could also be inhibited by the RAR.

T2 sequence (P05412 whole entry): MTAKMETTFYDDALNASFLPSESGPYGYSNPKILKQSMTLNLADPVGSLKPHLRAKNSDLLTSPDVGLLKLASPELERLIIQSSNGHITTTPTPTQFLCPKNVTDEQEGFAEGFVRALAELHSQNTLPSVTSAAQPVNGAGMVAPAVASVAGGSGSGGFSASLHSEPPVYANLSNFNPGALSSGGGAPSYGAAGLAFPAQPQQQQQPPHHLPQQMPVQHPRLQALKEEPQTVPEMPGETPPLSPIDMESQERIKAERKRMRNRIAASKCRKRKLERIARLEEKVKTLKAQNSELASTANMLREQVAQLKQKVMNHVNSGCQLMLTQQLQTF

IC50 ([5]; Homo sapiens, read-out: half maximal inhibition of TPA induced activity of -73 Col-CAT by RARβ): 1 nM
Molecule: CC1=C(/C=C/C(C)=C/C=C/C(C)=C/C(=O)O)C(C)(C)CCC1 [RA, retinoic acid]
effect on -63Col-CAT activity [4]: no effect | concentration required for maximal repression of TPA induced activity of -73 Col-CAT [5]: 10^−6 M

inhibition of cJun binding to the AP-1 site [6]: also observed | binding to collagenase AP-1 site or synthetic AP-1 site [3]: did not bind
Molecule: GR: in vitro synthesized glucocorticoid receptor

inhibition of cJun binding to the AP-1 site [6]: significant inhibition | binding to collagenase AP-1 site or synthetic AP-1 site [3]: did not bind
B1: RARβ: in vitro synthesized (cell-free translated) retinoic acid receptor β protein (protein, UniProt P10826 1-455, looked up)
Retinoic acid receptor beta: T1 sequence (P10826 1-455)

Second part, the molecule before the results:

Molecule: N[C@@H](Cc1cc(I)c(Oc2ccc(O)c(I)c2)c(I)c1)C(=O)O [T3]
repression of TPA collagenase promoter activity [1]: dependant on the concentration of T3

Molecule: cJun: bacterially produced or in vitro translated cJun protein, AP-1 component
inhibition of RARβ DNA binding activity on RARE [2]: inhibited its DNA binding activity in a concentration dependent manner | binding to collagenase AP-1 site or synthetic AP-1 site [3]: specific binding

B2: RARγ: in vitro synthesized (cell-free translated) retinoic acid receptor γ protein (protein, UniProt P13631 1-454, looked up)
Retinoic acid receptor gamma: MATNKERLFAAGALGPGSGYPGAGFPFAFPGALRGSPPFEMLSPSFRGLGQPDLPKEMASLSVETQSTSSEEMVPSSPSPPPPPRVYKPCFVCNDKSSGYHYGVSSCEGCKGFFRRSIQKNMVYTCHRDKNCIINKVTRNRCQYCRLQKCFEVGMSKEAVRNDRNKKKKEVKEEGSPDSYELSPQLEELITKVSKAHQETFPSLCQLGKYTTNSSADHRVQLDLGLWDKFSELATKCIIKIVEFAKRLPGFTGLSIADQITLLKAACLDILMLRICTRYTPEQDTMTFSDGLTLNRTQMHNAGFGPLTDLVFAFAGQLLPLEMDDTETGLLSAICLICGDRMDLEEPEKVDKLQEPLLEALRLYARRRRPSQPYMFPRMLMKITDLRGISTKGAERAITLKMEIPGPMPPLIREMLENPEMFEDDSSQPGPHPNASSEDEVPGGQGKGGLKSPA
inhibition of cJun binding to the AP-1 site [6]: significant inhibition
